Laboratory results from paper PMC3311054 (2012).
pKi: −log10 of the molar value.

Key:
[1] = target: bovine milk xanthine oxidoreductase (bXOR) (Bos taurus, UniProt P80457); test: steady-state kinetics, xanthine-NAD+ activity, uric acid absorbance at […] nm; type: biochemical
[2] = target: T1, Rhodobacter capsulatus xanthine oxidoreductase (RcXOR) (Rhodobacter capsulatus, UniProt O54051); test: steady-state kinetics, Lineweaver-Burk plots of xanthine-NAD+ activity; type: biochemical
T1 sequence (O54051 1-777): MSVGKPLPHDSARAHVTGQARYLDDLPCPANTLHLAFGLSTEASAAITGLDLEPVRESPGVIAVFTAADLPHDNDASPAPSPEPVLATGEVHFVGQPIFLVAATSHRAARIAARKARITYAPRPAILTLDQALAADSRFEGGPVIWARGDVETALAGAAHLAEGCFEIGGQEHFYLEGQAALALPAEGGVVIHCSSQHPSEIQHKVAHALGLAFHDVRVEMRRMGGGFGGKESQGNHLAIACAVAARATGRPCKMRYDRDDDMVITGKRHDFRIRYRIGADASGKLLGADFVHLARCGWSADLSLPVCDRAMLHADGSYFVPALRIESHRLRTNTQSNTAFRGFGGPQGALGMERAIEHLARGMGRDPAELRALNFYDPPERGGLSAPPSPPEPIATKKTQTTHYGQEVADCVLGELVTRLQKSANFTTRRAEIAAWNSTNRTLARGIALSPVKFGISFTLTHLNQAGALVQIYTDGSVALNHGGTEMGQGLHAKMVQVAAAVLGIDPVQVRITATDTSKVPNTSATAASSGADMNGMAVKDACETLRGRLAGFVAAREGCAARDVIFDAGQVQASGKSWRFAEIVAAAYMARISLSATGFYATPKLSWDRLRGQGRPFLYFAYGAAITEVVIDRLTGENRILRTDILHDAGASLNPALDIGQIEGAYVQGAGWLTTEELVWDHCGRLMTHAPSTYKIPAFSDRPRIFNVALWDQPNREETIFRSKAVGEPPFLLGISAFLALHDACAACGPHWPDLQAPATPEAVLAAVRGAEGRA
T1 sequence (O54050 1-462 partner): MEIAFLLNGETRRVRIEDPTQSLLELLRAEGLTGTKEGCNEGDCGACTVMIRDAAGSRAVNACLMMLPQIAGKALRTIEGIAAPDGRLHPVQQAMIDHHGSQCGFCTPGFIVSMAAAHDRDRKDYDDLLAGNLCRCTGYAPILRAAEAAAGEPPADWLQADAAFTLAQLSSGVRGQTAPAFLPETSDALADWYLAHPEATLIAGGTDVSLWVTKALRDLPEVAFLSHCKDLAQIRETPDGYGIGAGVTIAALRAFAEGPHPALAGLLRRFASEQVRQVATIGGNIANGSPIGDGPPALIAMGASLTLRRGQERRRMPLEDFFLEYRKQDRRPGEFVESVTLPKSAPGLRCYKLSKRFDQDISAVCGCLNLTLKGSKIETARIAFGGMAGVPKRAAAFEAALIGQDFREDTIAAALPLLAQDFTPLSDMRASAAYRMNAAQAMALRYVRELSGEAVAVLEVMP

Chain of bovine milk xanthine oxidoreductase (bXOR) (P80457 2-1332): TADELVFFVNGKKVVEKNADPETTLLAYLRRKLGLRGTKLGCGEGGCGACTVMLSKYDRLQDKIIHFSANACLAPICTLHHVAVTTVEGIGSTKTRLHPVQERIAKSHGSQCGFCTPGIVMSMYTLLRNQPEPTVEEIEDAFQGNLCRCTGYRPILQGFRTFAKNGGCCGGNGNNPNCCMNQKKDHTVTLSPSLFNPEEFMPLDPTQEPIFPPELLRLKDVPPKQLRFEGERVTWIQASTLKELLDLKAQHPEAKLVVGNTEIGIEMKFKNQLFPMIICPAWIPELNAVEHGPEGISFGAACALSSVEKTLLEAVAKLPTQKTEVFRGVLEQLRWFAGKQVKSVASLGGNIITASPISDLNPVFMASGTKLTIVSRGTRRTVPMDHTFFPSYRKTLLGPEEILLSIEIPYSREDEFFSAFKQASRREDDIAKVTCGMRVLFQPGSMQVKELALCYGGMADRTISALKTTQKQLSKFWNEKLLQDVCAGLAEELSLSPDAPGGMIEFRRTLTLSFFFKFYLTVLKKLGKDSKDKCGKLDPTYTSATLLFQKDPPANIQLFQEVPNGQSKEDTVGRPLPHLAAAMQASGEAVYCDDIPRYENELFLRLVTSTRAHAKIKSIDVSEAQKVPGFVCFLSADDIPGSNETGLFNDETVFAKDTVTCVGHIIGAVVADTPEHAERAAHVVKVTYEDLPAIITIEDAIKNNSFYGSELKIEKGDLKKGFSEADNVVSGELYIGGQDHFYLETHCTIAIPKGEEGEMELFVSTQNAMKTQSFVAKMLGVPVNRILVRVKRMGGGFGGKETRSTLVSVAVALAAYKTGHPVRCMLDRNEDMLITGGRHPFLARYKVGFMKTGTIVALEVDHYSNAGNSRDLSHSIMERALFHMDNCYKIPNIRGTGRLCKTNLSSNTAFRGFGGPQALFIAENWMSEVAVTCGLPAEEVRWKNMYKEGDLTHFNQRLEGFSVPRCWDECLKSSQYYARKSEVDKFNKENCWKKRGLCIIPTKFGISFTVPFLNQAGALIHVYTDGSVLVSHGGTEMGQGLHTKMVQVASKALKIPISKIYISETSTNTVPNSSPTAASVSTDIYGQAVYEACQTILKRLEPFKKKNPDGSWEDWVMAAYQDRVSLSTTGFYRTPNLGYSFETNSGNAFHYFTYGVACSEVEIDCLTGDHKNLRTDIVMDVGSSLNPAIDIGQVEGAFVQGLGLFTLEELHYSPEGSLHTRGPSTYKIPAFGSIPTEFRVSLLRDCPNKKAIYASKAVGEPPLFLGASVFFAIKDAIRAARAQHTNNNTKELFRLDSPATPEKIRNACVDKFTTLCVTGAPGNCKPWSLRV

steady-state kinetics, xanthine-NAD+ activity, uric acid absorbance at 295 nm [1]: < 100 nM
pKi [2]: 4.76
Compound: Cc1nc(-c2ccc(OCC(C)C)c(C#N)c2)sc1C(=O)O [febuxostat]
